Measured values as given in US10092579B2, “Gold(I) complexes with anticancer properties and methods of use thereof” (KING FAHD UNIVERSITY OF PETROLEUM AND MINERALS, priority 2016, dated 2018).
Read-outs that look alike come from different tables or passages of the source.

How the values were obtained:
Format in all cases: cell-based, human
A549 cancer cell line = test: MTT assay for anticancer activity, A549 cells; conditions: read-out: IC50 against A549
Protocol: (§1) A549, HeLa and HCT15 human cancer cells were seeded and maintained in triplicate at 4×10^3 cells/well in 100 μL DMEM (Dulbecco's Modified Eagle's Medium) containing 10% FBS (Fetal Bovine Serum) in 96-wells tissue culture plate and incubated for 72 h at 37° C. 5% CO2 in air and 90% relative humidity in CO2 incubator.
(§2) The resultant cultures were incubated for 24 h. The medium of wells was discarded. 100 μL DMEM containing MTT (3-(4,5-Dimethylthiazol-2-Yl)-2,5-Diphenyltetrazolium Bromide) (5 mg/mL) was added to the wells and incubated in CO2 incubator at 37° C. in dark for 4 h. After incubation, a purple colored formazan (artificial chromogenic dye, product of the reduction of water insoluble tetrazolium salts e.g., MMT by dehydrogenases and reductases) in the cells is produced and appeared as dark crystals in the bottom of the wells. The medium of culture was discarded from each well carefully to avoid disruption of monolayer. 100 μL of Dimethylsulphoxide (DMSO) was added in each well. The solution was thoroughly mixed in the wells to dissolve the formazan crystals which ultimately result into a purple solution. The absorbance of the 96-wells plate was taken at 570 nm with Lab systems Multiskan EX-Enzyme-linked immunosorbent assay (EX-ELISA) reader against a reagent blank. All data presented are mean±standard error of the mean (SEM).

HCT15 cancer cell line = test: MTT assay for anticancer activity, HCT15 cells; conditions: read-out: IC50 against HCT15
Protocol: as §1, §2

HeLa cancer cell line = test: MTT assay for anticancer activity, HeLa cells; conditions: read-out: IC50 against HeLa
Protocol: as §1, §2

[1] = A549 cells, MTT, 24 h incubation
[2] = HCT15 cells, MTT, 24 h incubation
[3] = HeLa cells, MTT, 24 h incubation

| Compound | IC50 (A549 cancer cell line; [1]) | IC50 (HCT15 cancer cell line; [2]) | IC50 (HeLa cancer cell line; [3]) | IC50 (A549 cancer cell line) | IC50 (HCT15 cancer cell line) | IC50 (HeLa cancer cell line) |
| --- | --- | --- | --- | --- | --- | --- |
| [Cl][Au].[Cl][Au].c1ccc(P(CP(c2ccccc2)c2ccccc2)c2ccccc2)cc1 [[(DPPM)(AuCl)2](A0), [μ-Bis(diphenylphosphino)methane]dichlorodigold(I)] | 137 µM | 148 µM | 108 µM |  |  |  |
| N.N.[Cl][Pt][Cl] [cisplatin] | 41.6 µM | 29.5 µM | 19.4 µM |  |  |  |
| tri-tert-butyl-phosphine gold(I) dibenzyldithiocarbamate [Complex (A1)] |  |  |  | 96.9 µM | 93.2 µM | 25.6 µM |
